Data from patent publication US20220087970A1, “PREVENTION OF ANESTHETIC-INDUCED NEUROCOGNITIVE DYSFUNCTION” (The Johns Hopkins University, priority 2019, published 2022).

What was measured:
GFP+ neurons = conditions: early exposure to isoflurane, PND30; Kang et al., 2017; cited from earlier work
[1] = tested on: PSD-95 or PSD-93 and the NMDA receptor or nNOS; conditions: clinically relevant concentrations; Fang et al., 2003; Tao et al., 2015; cited from earlier work
primary neuron cultures = assay: Primary neuron cultures, long thin spines and filopodia at DIV7; format: cell-based; conditions: 4 hrs: isoflurane 1.5%, PDZ2WT peptide 1 μM or sevoflurane 2.1%
Protocol: Primary neuron cultures were exposed to control gas (25% O2, 5% CO2, bal N2), isoflurane (1.5% ISO in 25% O2, 5% CO2, bal N2), DETA NONOate NO donor 150 μM and sGC inhibitor ODQ 100 μM for 4 hrs. […] MAP2 dendrite marker, green. Drebrin A/E immature spine/filopodia marker, red. Scale bar is 5 μm. FIG. 20B, Density of long thin spines and filopodia at DIV7 among exposed groups analyzed using Imaris 93.1;
MAP2, green. Drebrin, red. Scale bar is 5 μm. FIG. 21B, show the density of long thin spines and filopodia among exposed groups;
Neuron cultures were exposed to control gas (25% O2, 5% CO2, balance N2) or sevoflurane (2.1% ISO in 25% O2, 5% CO2, balanced N2) for 4 hrs. […] Scale bar is 5 μm. FIG. 22B, Density of long thin spines and filopodia among exposed groups; and […]

NR2B = assay: Western blot of hippocampal synaptic fractions: NR2B; format: in vivo; conditions: one day after PND7 mice exposed to isoflurane (1.5% ISO in O2, 4 h)
Protocol: (§1) One day after PND7 mice were exposed to isoflurane (1.5% ISO in O2, 4 h), we harvested hippocampal tissues for Western blotting to assess the expression of receptors and MAGUKs. […] (N=9). A *p<0.05 was considered significant. […] Data shown as % actin;

NR1 = assay: Western blot of hippocampal synaptic fractions: NR1; format: in vivo; conditions: one day after PND7 mice exposed to isoflurane (1.5% ISO in O2, 4 h)
Protocol: as §1

neuron cultures = assay: Neuron cultures, synapses (PSD95/Synaptophysin puncta) at DIV14; format: cell-based; conditions: isoflurane exposure at DIV7, stained at DIV14
Protocol: Neuron cultures were transfected with GFP-AAV virus at DIV-4 and were exposed to NO donor (DETA) 150 μM and sGC inhibitor (ODQ) 100 μM for 4 hrs right before exposure to gases at DIV7. Cells were returned back to incubator with half media change every second day. At DIV14, cells were fixed and stained with PSD95 and Synaptophysin. […] Scale bar is 5 μm. FIG. 23B: Synapse were analyzed using puncta analyzer plugin as shown in methods section.

[2] = design: species or system mice; conditions: mouse, in vivo
Protocol: PND7 control and experimental mice were placed in a clear plastic cone and body temperature maintained by a heating blanket set to 35° C. Heart rate (HR) and oxyhemoglobin saturation (SpO2) were continuously monitored using pulse-oximetry (PhysioSuite, Kent Scientific). Arterial blood was collected by terminal cardiac puncture of the left ventricle from sentinels and pH (pHa) determined using a blood gas machine (ABL800 FLEX Series Radiometer). […] Naïve control animals were left with the dams. Control ‘CON’ animals were exposed to oxygen only. Anesthesia was initiated with 2.4% isoflurane in oxygen for 2 min and tapered down to 1.5% within 15 min. Exposure to 1.5% isoflurane was continued for 3 hours and 45 min (total 4 hours ISO). At the end of the exposure animals were maintained in oxygen on the heating blanket for 10 min then returned to dams. […] Tao and Johns, 2008. Purification of fusion peptides was performed by Creative BioMart (Shirley, N.Y.) and verified by Coomassie blue staining and Western blot analysis and then stored in 10% glycerol/phosphate-buffered saline at −80° C. until use. The Tat-PSD-95 PDZ2WT and MUT plasmids used to generate proteins containing an amino-terminal, in-frame, 11-amino-acid, minimal transduction domain (residues 47-57 of human immunodeficiency virus Tat protein) termed Tat. […] Fang et al., 2003. The NO donor Molsidomine [(N-[ethoxycarbonyl]-3-[4-morpholinosydnomine] (Sigma, St. Louis, Mo.) was injected at 4 mg/kg into mice ip in 100 μL sterile saline as previously described. Control animals were injected ip with the vehicle (saline).

FC(F)OC(Cl)C(F)(F)F (racemic) [ISO, (RS)-2-chloro-2-(difluoromethoxy)-1,1,1-trifluoroethane]
total dendritic length and Sholl analysis of dendritic complexity (GFP+ neurons): marked overgrowth of dendritic arbors
PDZ domain-mediated protein interactions [1]: can disrupt PDZ domain-mediated protein-protein interactions in vitro and in vivo
long thin spines and filopodia at DIV7 after exposure (primary neuron cultures): loss of long thin and filopodia spines
amount of NR2B in synaptic fractions (NR2B): significant increase
amount of NR1 in synaptic fractions (NR1): decrease
synapses at DIV14 after exposure (neuron cultures): loss of synapse
arterial blood pH (pHa) [2]: 7.26±0.05
heart rate (HR) [2]: 611±84
oxyhemoglobin saturation (SpO2) [2]: 93±6
